Test results: patent publication US8952024B2, “Herbicidal pyrimidone derivatives” (E I du Pont de Nemours and Company, priority 2009, dated 2015)

Columns and labels:
Assay type in all cases: in vivo
[1] = system: barnyardgrass (Echinochloa crus-galli); assay: Test A pre-/postemergence plant response
Outline: (§1)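 Plants grown from seed in a loam soil and sand mix received test compounds both as a preemergence soil spray and, at the same time, as a postemergence spray at the one- to two-leaf stage. Injury was judged visually against untreated controls roughly ten days later, 0 meaning no effect and 100 complete control.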

corn (Zea mays) = assay: Test A pre-/postemergence plant response
Outline: as §1

[2] = system: giant foxtail (Setaria faberii); assay: Test A pre-/postemergence plant response
Outline: as §1

[3] = system: large crabgrass (Digitaria sanguinalis); assay: Test A pre-/postemergence plant response
Outline: as §1

[4] = system: morningglory (Ipomoea spp.); assay: Test A pre-/postemergence plant response
Outline: as §1

[5] = system: pigweed (Amaranthus retroflexus); assay: Test A pre-/postemergence plant response
Outline: as §1

[6] = system: velvetleaf (Abutilon theophrasti); assay: Test A pre-/postemergence plant response
Outline: as §1

[7] = system: wheat (Triticum aestivum); assay: Test A pre-/postemergence plant response
Outline: as §1

[8] = system: cocklebur (Xanthium strumarium); assay: Test B pre-/postemergence plant response
Excerpt: (§2) Seeds of plant species selected from blackgrass (Alopecurus myosuroides), downy bromegrass (Bromus tectorum), green foxtail (Setaria viridis), Italian ryegrass (Lolium multiflorum), wheat (Triticum aestivum), wild oat (Avena fatua), deadnettle (henbit deadnettle, Lamium amplexicaule), galium (catchweed bedstraw, Galium aparine), bermudagrass (Cynodon dactylon), Surinam grass (Brachiaria decumbens), cocklebur (Xanthium strumarium), corn (Zea mays), large crabgrass (Digitaria sanguinalis), woolly cupgrass (Eriochloa villosa), giant foxtail (Setaria faberii), goosegrass (Eleusine indica), johnsongrass (Sorghum halepense), kochia (Kochia scoparia), lambsquarters (Chenopodium album), morningglory (Ipomoea coccinea), nightshade (eastern black nightshade, Solanum ptycanthum), yellow nutsedge (Cyperus esculentus), pigweed (Amaranthus retroflexus), ragweed (common ragweed, Ambrosia elatior), Russian thistle (Salsola kali), soybean (Glycine max), sunflower (common oilseed sunflower, Helianthus annuus) and velvetleaf (Abutilon theophrasti) were planted into a blend of loam soil and sand and treated preemergence with test compounds formulated in a non-phytotoxic solvent mixture which included a surfactant.
(§3) At the same time, plants selected from these crop and weed species and also winter barley (Hordeum vulgare), canarygrass (Phalaris minor), chickweed (Stellaria media) and windgrass (Apera spica-venti) were planted in pots containing Redi-Earth® planting medium (Scotts Company, 14111 Scottslawn Road, Marysville, Ohio 43041) comprising spaghnum peat moss, vermiculite, wetting agent and starter nutrients and treated with postemergence applications of some of the test chemicals formulated in the same manner. Plants ranged in height from 2 to 18 cm (1- to 4-leaf stage) for postemergence treatments.
(§4) Treated plants and controls were maintained in a greenhouse for 13 to 15 days, after which time all treated plants were visually evaluated and compared to controls. Plant response ratings, summarized in Table B, are based on a scale of 0 to 100 where 0 is no effect and 100 is complete control. A dash (-) response means no test result.

[9] = system: morningglory (Ipomoea coccinea); assay: Test B pre-/postemergence plant response
Excerpt: as §2, §3, §4

soybean (Glycine max) = assay: Test B pre-/postemergence plant response
Excerpt: as §2, §3, §4

[10] = system: wheat (Triticum aestivum); assay: Test B pre-/postemergence plant response
Excerpt: as §2, §3, §4

[11] = Postemergence, 125 g ai/ha, visual injury, 0 to 100 scale (0 no effect, 100 complete control), approx. ten days
[12] = Postemergence, 500 g ai/ha, 0 to 100 scale, 0 = no effect, 100 = complete control, approx. ten days
[13] = Preemergence, 125 g ai/ha, 0 to 100 scale, 0 = no effect, 100 = complete control
[14] = Preemergence, 500 g ai/ha, visual injury, 0 to 100 scale (0 no effect, 100 complete control), approx. ten days
[15] = 250 g ai/ha, Preemergence, 0 to 100 scale
[16] = Postemergence, 31 g ai/ha, scale 0 to 100 (0 no effect, 100 complete control)
[17] = Postemergence, 62 g ai/ha, scale 0 (no effect) to 100 (complete control), 13 to 15 days
[18] = Postemergence, 125 g ai/ha, visual rating after 13 to 15 days, scale 0 (no effect) to 100 (complete control)
[19] = Postemergence, 250 g ai/ha, scale 0 to 100
[20] = Preemergence, 31 g ai/ha, scale 0 to 100 (0 no effect, 100 complete control)
[21] = Preemergence, 62 g ai/ha, scale 0 to 100, 0 no effect, 100 complete control
[22] = Preemergence, 125 g ai/ha, 0 to 100 scale

Cc1cccc(-n2c(-c3ccccc3)ncc(C(=O)C3=C(O)CCCC3=O)c2=O)c1C [Compound 27]
0: Corn plant response rating (corn (Zea mays); [11]) | Plant response rating, Corn (corn (Zea mays); [13]) | Plant response rating, Corn (corn (Zea mays); [14]) | Wheat plant response rating [7, 11] | Plant response rating, Wheat [7, 12] | Plant response rating, Wheat [7, 13] | Plant response rating, Wheat [7, 14] | Plant response rating, Cocklebur [8, 20] | Plant response rating, Wheat [10, 16] | Plant response rating, Wheat [10, 20] | Plant response rating, Wheat [10, 21] | Wheat plant response rating [10, 22]
95: Plant response rating, Cocklebur [8, 17] | Plant response rating, Cocklebur [8, 18] | Plant response rating, Soybean (soybean (Glycine max); [16]) | Plant response rating, Soybean (soybean (Glycine max); [17]) | Plant response rating, Soybean (soybean (Glycine max); [18])
5: Plant response rating, Wheat [10, 15] | Plant response rating, Wheat [10, 17]
98: Cocklebur plant response rating [8, 19]
10: Plant response rating, Barnyardgrass [1, 13] | Plant response rating, Wheat [10, 18]
20: Plant response rating, Morningglory [4, 13]
85: Plant response rating, Cocklebur [8, 21] | Cocklebur plant response rating [8, 22]
100: Plant response rating, Crabgrass, Large [3, 12] | Pigweed plant response rating [5, 11] | Plant response rating, Pigweed [5, 12] | Velvetleaf plant response rating [6, 11] | Plant response rating, Velvetleaf [6, 12] | Plant response rating, Velvetleaf [6, 14] | Plant response rating, Morningglory [9, 15] | Plant response rating, Morningglory [9, 20] | Plant response rating, Morningglory [9, 21] | Morningglory plant response rating [9, 22] | Soybean plant response rating (soybean (Glycine max); [19])
70: Crabgrass, Large plant response rating [3, 11] | Plant response rating, Morningglory [4, 12] | Plant response rating, Pigweed [5, 13] | Plant response rating, Soybean (soybean (Glycine max); [20]) | Plant response rating, Soybean (soybean (Glycine max); [21])
90: Plant response rating, Barnyardgrass [1, 12] | Plant response rating, Foxtail, Giant [2, 12] | Plant response rating, Foxtail, Giant [2, 14] | Plant response rating, Crabgrass, Large [3, 14] | Plant response rating, Pigweed [5, 14] | Plant response rating, Cocklebur [8, 15] | Plant response rating, Cocklebur [8, 16] | Morningglory plant response rating [9, 19] | Plant response rating, Soybean (soybean (Glycine max); [15])
50: Barnyardgrass plant response rating [1, 11] | Plant response rating, Morningglory [9, 16]
80: Plant response rating, Barnyardgrass [1, 14] | Foxtail, Giant plant response rating [2, 11] | Plant response rating, Morningglory [4, 14] | Plant response rating, Morningglory [9, 17] | Plant response rating, Morningglory [9, 18] | Soybean plant response rating (soybean (Glycine max); [22])
60: Morningglory plant response rating [4, 11] | Plant response rating, Velvetleaf [6, 13]
30: Plant response rating, Corn (corn (Zea mays); [12]) | Plant response rating, Foxtail, Giant [2, 13] | Plant response rating, Crabgrass, Large [3, 13] | Wheat plant response rating [10, 19]

Cc1ccc(C)c(-n2c(-c3ccccc3)ncc(C(=O)C3=C(O)CCCC3=O)c2=O)c1 [Compound 29]
20: Barnyardgrass plant response rating [1, 11] | Plant response rating, Crabgrass, Large [3, 13] | Plant response rating, Velvetleaf [6, 13] | Plant response rating, Soybean (soybean (Glycine max); [20])
90: Plant response rating, Barnyardgrass [1, 12] | Plant response rating, Foxtail, Giant [2, 12] | Plant response rating, Crabgrass, Large [3, 12] | Plant response rating, Morningglory [4, 12] | Plant response rating, Cocklebur [8, 15] | Cocklebur plant response rating [8, 22] | Soybean plant response rating (soybean (Glycine max); [22])
30: Plant response rating, Foxtail, Giant [2, 13]
95: Plant response rating, Cocklebur [8, 17] | Plant response rating, Cocklebur [8, 18] | Plant response rating, Soybean (soybean (Glycine max); [15]) | Plant response rating, Soybean (soybean (Glycine max); [17])
10: Plant response rating, Corn (corn (Zea mays); [12]) | Plant response rating, Wheat [10, 18]
50: Plant response rating, Pigweed [5, 13]
98: Cocklebur plant response rating [8, 19] | Morningglory plant response rating [9, 19] | Plant response rating, Soybean (soybean (Glycine max); [18]) | Soybean plant response rating (soybean (Glycine max); [19])
70: Foxtail, Giant plant response rating [2, 11] | Crabgrass, Large plant response rating [3, 11] | Plant response rating, Morningglory [9, 17]
85: Plant response rating, Cocklebur [8, 16] | Plant response rating, Soybean (soybean (Glycine max); [21])
40: Plant response rating, Morningglory [4, 13] | Wheat plant response rating [10, 19]
100: Plant response rating, Barnyardgrass [1, 14] | Plant response rating, Foxtail, Giant [2, 14] | Plant response rating, Crabgrass, Large [3, 14] | Plant response rating, Pigweed [5, 12] | Plant response rating, Pigweed [5, 14] | Velvetleaf plant response rating [6, 11] | Plant response rating, Velvetleaf [6, 12] | Plant response rating, Velvetleaf [6, 14] | Plant response rating, Morningglory [9, 15] | Plant response rating, Morningglory [9, 20] | Plant response rating, Morningglory [9, 21] | Morningglory plant response rating [9, 22]
5: Plant response rating, Cocklebur [8, 20]
80: Plant response rating, Morningglory [4, 14] | Pigweed plant response rating [5, 11] | Plant response rating, Cocklebur [8, 21] | Plant response rating, Morningglory [9, 18]
0: Plant response rating, Barnyardgrass [1, 13] | Corn plant response rating (corn (Zea mays); [11]) | Plant response rating, Corn (corn (Zea mays); [13]) | Plant response rating, Corn (corn (Zea mays); [14]) | Wheat plant response rating [7, 11] | Plant response rating, Wheat [7, 12] | Plant response rating, Wheat [7, 13] | Plant response rating, Wheat [7, 14] | Plant response rating, Wheat [10, 15] | Plant response rating, Wheat [10, 17] | Plant response rating, Wheat [10, 20] | Plant response rating, Wheat [10, 21] | Wheat plant response rating [10, 22]
60: Morningglory plant response rating [4, 11]

O=C1CCCC(O)=C1C(=O)c1cnc(-c2cccc(Cl)c2)n(-c2ccccc2)c1=O [Compound 34]
30: Plant response rating, Corn (corn (Zea mays); [12]) | Plant response rating, Wheat [7, 12]
65: Soybean plant response rating (soybean (Glycine max); [22])
25: Plant response rating, Cocklebur [8, 17]
98: Plant response rating, Morningglory [9, 15]
95: Cocklebur plant response rating [8, 19] | Plant response rating, Soybean (soybean (Glycine max); [17]) | Plant response rating, Soybean (soybean (Glycine max); [18])
90: Barnyardgrass plant response rating [1, 11] | Foxtail, Giant plant response rating [2, 11] | Crabgrass, Large plant response rating [3, 11] | Plant response rating, Crabgrass, Large [3, 13] | Plant response rating, Pigweed [5, 13]
100: Plant response rating, Barnyardgrass [1, 12] | Plant response rating, Barnyardgrass [1, 14] | Plant response rating, Foxtail, Giant [2, 12] | Plant response rating, Foxtail, Giant [2, 14] | Plant response rating, Crabgrass, Large [3, 12] | Plant response rating, Crabgrass, Large [3, 14] | Plant response rating, Morningglory [4, 12] | Pigweed plant response rating [5, 11] | Plant response rating, Pigweed [5, 12] | Plant response rating, Pigweed [5, 14] | Velvetleaf plant response rating [6, 11] | Plant response rating, Velvetleaf [6, 12] | Plant response rating, Velvetleaf [6, 14]
45: Plant response rating, Soybean (soybean (Glycine max); [21])
0: Corn plant response rating (corn (Zea mays); [11]) | Plant response rating, Corn (corn (Zea mays); [13]) | Plant response rating, Corn (corn (Zea mays); [14]) | Wheat plant response rating [7, 11] | Plant response rating, Wheat [7, 13] | Plant response rating, Wheat [7, 14] | Plant response rating, Cocklebur [8, 16] | Plant response rating, Cocklebur [8, 20] | Plant response rating, Morningglory [9, 20] | Plant response rating, Morningglory [9, 21] | Plant response rating, Soybean (soybean (Glycine max); [20]) | Plant response rating, Wheat [10, 15] | Plant response rating, Wheat [10, 21] | Wheat plant response rating [10, 22]
55: Plant response rating, Cocklebur [8, 21]
10: Plant response rating, Barnyardgrass [1, 13] | Plant response rating, Morningglory [4, 13] | Plant response rating, Wheat [10, 17]
75: Cocklebur plant response rating [8, 22] | Morningglory plant response rating [9, 22]
60: Plant response rating, Foxtail, Giant [2, 13] | Plant response rating, Morningglory [4, 14]
35: Plant response rating, Wheat [10, 18]
85: Plant response rating, Cocklebur [8, 15] | Plant response rating, Cocklebur [8, 18] | Plant response rating, Morningglory [9, 18]
50: Plant response rating, Velvetleaf [6, 13]
80: Morningglory plant response rating [4, 11] | Plant response rating, Morningglory [9, 17] | Plant response rating, Soybean (soybean (Glycine max); [15])
